Type in all cases: cell-based
In assay [1] the test system is Colletotrichum orbiculare. In words: Fungicidal activity against Colletotrichum orbiculare in the microtiterplate test.
A further assay concerns Pyricularia oryzae. The assay can be described thus: microbe, parasite or virus in culture. Particulars: for Observed efficacy: single compound.
In the next assay the test system is Septoria tritici. In words: Fungicidal activity against Septoria tritici, micro titer plate (MTP) test. As to conditions: for inhibition of growth at […] / inhibition of growth at 1 ppm / Observed efficacy / inhibition of growth at 4 ppm: Table V.4, component B alone.
A further assay has as its system Botrytis cinerea. The assay can be described thus: Fungicidal activity against Botrytis cinerea, micro titer plate (MTP) test. As to conditions: component B alone; for inhibition of growth at […] / inhibition of growth at 1 ppm: Botrytis cinerea, 168 h, read-out: Observed efficacy; for inhibition of growth at 1 ppm / Observed efficacy: 1 ppm.
[2] abbreviates: Pyricularia oryzae, 168 h, read-out: Observed efficacy.
Where [3] appears, read: Zymoseptoria tritici, 168 h, 0.016 ppm, read-out: Observed efficacy.
The mark [4] stands for this setting: Colletotrichum orbiculare, 0.063 ppm, read-out: Observed efficacy.
Where [5] appears, read: Colletotrichum orbiculare, 0.25 ppm, read-out: Observed efficacy.
Where [6] appears, read: Zymoseptoria tritici, 168 h, 0.063 ppm, read-out: Observed efficacy.
Setting [7] is: Zymoseptoria tritici, 168 h, 0.25 ppm, read-out: Observed efficacy.
Setting [8] is: Zymoseptoria tritici, 168 h, 1 ppm, read-out: Observed efficacy.
Setting [9] is: Colletotrichum orbiculare, 1 ppm, read-out: Observed efficacy.
Setting [10] is: Colletotrichum orbiculare, read-out: Observed efficacy.
The mark [11] stands for this setting: Zymoseptoria tritici, 168 h, 4 ppm, read-out: Observed efficacy.
[12] abbreviates: Colletotrichum orbiculare, 0.016 ppm, read-out: Observed efficacy.

Where two headings read alike, the source gives them in different places.

As for `Cn1cc(C(=O)Nc2cccc3c2[C@@H]2CC[C@H]3C2=C(Cl)Cl)c(C(F)F)n1` (racemic) [Benzovindiflupyr, benzovindiflupyr], the Observed efficacy in assay [1] (0.004 ppm) stood at 2.

Consider `Cc1cccc(-n2nnn(C)c2=O)c1COc1ccn(-c2ccc(Cl)cc2)n1` [A.1.25, 1-[2-[[1-(4-chlorophenyl)pyrazol-3-yl]oxymethyl]-3-methyl-phenyl]-4-methyl-tetrazol-5-one], for which the inhibition of growth at 0.004 ppm is 4% in the assay on Pyricularia oryzae (setting [2]) and 3% in the assay on Septoria tritici (Zymoseptoria tritici, 168 h, read-out: Observed efficacy).

On to `COc1ccnc(C(=O)NC2COC(=O)[C@H](Cc3ccccc3)[C@@H](OC(=O)C(C)C)[C@H](C)OC2=O)c1O` (stereo partly drawn) [A.2.3, [(6S,7R,8R)-8-benzyl-3-[(3-hydroxy-4-methoxy-pyridine-2-carbonyl)amino]-6-methyl-4,9-dioxo-1,5-dioxonan-7-yl] 2-methylpropanoate], for which the inhibition of growth at […] came to 52% in the assay on Septoria tritici (setting [3]), 0% with Botrytis cinerea (0.25 ppm), 47% in assay [1] (setting [4]) and 77% in assay [1] (setting [5]). For the same compound, the inhibition of growth at 1 ppm with Botrytis cinerea turned out to be 11%.

As to `CCC(=O)OCOc1c(OC)ccnc1C(=O)NC1COC(=O)[C@H](Cc2ccccc2)[C@@H](OC(=O)C(C)C)[C@H](C)OC1=O` (stereo partly drawn) [A.2.5, [(6S,7R,8R)-8-benzyl-3-[[4-methoxy-3-(propanoyloxymethoxy)pyridine-2-carbonyl]amino]-6-methyl-4,9-dioxo-1,5-dioxonan-7-yl] 2-methylpropanoate], the results for the inhibition of growth at […] (with Septoria tritici (setting [6]); in assay [1] (setting [5])) were 33% and 72%, respectively. Besides, the inhibition of growth at 1 ppm in the assay with Botrytis cinerea is 6%.

Turning to `Cc1nn(C)cc1C(=O)Nc1cccc2c1C(C)CC2(C)C` (centres unmarked) [A.3.24, 1,3-dimethyl-N-(1,1,3-trimethylindan-4-yl)pyrazole-4-carboxamide], the values for the inhibition of growth at […] (in the assay on Septoria tritici (setting [7]); with Botrytis cinerea (0.25 ppm); in assay [1] (setting [5])) were 25%, 41% and 3%, respectively. In addition, the values for the inhibition of growth at 1 ppm (in the assay on Septoria tritici (setting [8]); in assay [1] (setting [9])) were 76% and 12%, respectively.

In the case of `CC1CC(C)(C)c2cccc(NC(=O)c3cccnc3C(F)F)c21` (centres unmarked) [A.3.32, 2-(difluoromethyl)-N-(1,1,3-trimethyl-indan-4-yl)pyridine-3-carboxamide], the inhibition of growth at […] in the assay with Septoria tritici (setting [7]) turned out to be 22%; in the assay with Botrytis cinerea (0.25 ppm) it was 32%. Besides, the inhibition of growth at 1 ppm in the assay with Septoria tritici (setting [8]) was found to be 70%; in assay [1] (setting [9]) it was 15%.

As for `CC[C@H]1CC(C)(C)c2cccc(NC(=O)c3cccnc3C(F)F)c21` [A.3.34, 2-(difluoromethyl)-N-[(3S)3-ethyl-1,1-dimethyl-indan-4-yl]pyridine-3-carboxamide], the inhibition of growth at […] with Septoria tritici (setting [7]) was 17%; in the assay with Botrytis cinerea (0.25 ppm) it was 1%. In addition, the inhibition of growth at 1 ppm with Botrytis cinerea was found to be 51%; in assay [1] (setting [9]), 14%.

`CCCCCCCCc1c(CC)nc2ncnn2c1N` [Ametoctradin, ametoctradin]: the results for the Observed efficacy (in the assay with Pyricularia oryzae (16 ppm); in the assay with Pyricularia oryzae (63 ppm); in assay [1] (63 ppm)) were 8, 13 and 14, respectively.

In assay [1] (0.004 ppm), `CO/C=C(/C(=O)OC)c1ccccc1Oc1cc(Oc2ccccc2C#N)ncn1` [Azoxystrobin, azoxystrobin] registered an Observed efficacy of 1.

Regarding `COC(=O)C(C)N(C(=O)Cc1ccccc1)c1c(C)cccc1C` (centres unmarked) [Benalaxyl, benalaxyl], in the assay with Pyricularia oryzae (setting [2]), the inhibition of growth at 1 ppm was 2% and the inhibition of growth at 4 ppm came to 8%. In addition, the inhibition of growth at 4 ppm in assay [1] (setting [10]) stood at 13%.

As to `COC(=O)Nc1nc2ccccc2[nH]1` [Carbendazim, carbendazim], the inhibition of growth at […] in assay [1] (setting [4]) amounted to 60%.

`O=C(Cc1ccccc1)N/C(=N\OCC1CC1)c1c(C(F)(F)F)ccc(F)c1F` [Cyflufenamid, cyflufenamid]: the inhibition of growth at 16 ppm in assay [1] (Colletotrichum orbiculare, 16 ppm, read-out: Observed efficacy) was 11%.

With `CC(C1CC1)C(O)(Cn1cncn1)c1ccc(Cl)cc1` (centres unmarked) [Cyproconazol, cyproconazole], in assay [1] (setting [10]), the inhibition of growth at 4 ppm came to 4%.

`CNC(=O)/C(=N/OC)c1ccccc1COc1cc(C)ccc1C` [Dimoxystrobin, dimoxystrobin]: the results for the Observed efficacy (in the assay on Botrytis cinerea; in assay [1] (1 ppm)) were 14% and 71, respectively.

With `N#Cc1sc2c(=O)c3ccccc3c(=O)c=2sc1C#N` [Dithianon, dithianon], the inhibition of growth at […] in assay [1] (setting [4]) came to 21%.

As to `CC1CC(C)(C)c2c(F)ccc(NC(=O)c3cn(C)nc3C(F)F)c21` (centres unmarked) [Fluindapyr, 3-(difluoromethyl)-N-(7-fluoro-1,1,3-trimethyl-indan-4-yl)-1-methyl-pyrazole-4-carboxamide], the inhibition of growth at […] in the assay with Septoria tritici (setting [7]) and in the assay with Botrytis cinerea (0.25 ppm) was 21% throughout. In addition, the results for the inhibition of growth at 1 ppm (in the assay with Septoria tritici (setting [8]); in assay [1] (setting [9])) were 58% and 12%, respectively.

Turning to `O=C(NCCc1ncc(C(F)(F)F)cc1Cl)c1ccccc1C(F)(F)F` [Fluopyram, fluopyram], the inhibition of growth at […] with Septoria tritici (setting [6]) was determined as 13%; in the assay with Septoria tritici (setting [7]) it was 33%; in assay [1] (setting [5]), 15%.

Regarding `O=c1c2cc(F)ccc2nc(-n2cncn2)n1-c1ccc(Cl)cc1Cl` [Fluquinconazol, fluquinconazole], the inhibition of growth at […] in assay [1] (setting [4]) came to 3%. In addition, in assay [1] (setting [9]), the inhibition of growth at 1 ppm came out at 12%.

Consider `Cn1cc(C(=O)Nc2ccccc2-c2cc(F)c(F)c(F)c2)c(C(F)F)n1` [Fluxapyroxad, fluxapyroxad], for which the Observed efficacy in assay [1] (0.004 ppm) turned out to be 1.

For the compound `CCN(C)C=Nc1cc(C)c(Oc2nc(Cc3ccc(Cl)cc3)ns2)cc1C` [K.1.29, N′-[4-[[3-[(4-chorophenyl)methyl]-1,2,4-thiadiazo-5-yl]oxy]-2,5-dimethyl-phenyl]-N-ethyl-N-methyl-formamidine], the Observed efficacy in the assay on Septoria tritici (4 ppm) turned out to be 6.

With `CCN(C)C=Nc1cc(Br)c(OC2Cc3ccccc3C2)nc1C` [K.1.30, N′-(5-bromo-6-indan-2-yloxy-2-methyl-3-pyridyl)-N-ethyl-N-methyl-formamidine], in the assay with Septoria tritici (setting [8]), the inhibition of growth at 1 ppm is 0%. In the assay on Septoria tritici (setting [11]), the inhibition of growth at 4 ppm was 0%.

Regarding `CCN(C)C=Nc1cc(Br)c(OC(C)c2cc(F)cc(F)c2)nc1C` (centres unmarked) [K.1.31, N′-[5-bromo-6-[1-(3,5-difluorophenyl)ethoxy]-2-methyl-3-pyridyl]-N-ethyl-N-methyl-formamidine], the inhibition of growth at 1 ppm with Septoria tritici (setting [8]) was 5%; in the assay on Botrytis cinerea it was 53%. In addition, the inhibition of growth at 4 ppm in the assay with Septoria tritici (setting [11]) amounted to 62%.

Turning to `CCCCCOC(=O)Nc1cccc(CO/N=C(/c2ccccc2)c2nnnn2C)n1` [K.1.42, pentyl N-[6-[[(Z)-[(1-methyltetrazol-5-yl)-phenyl-methylene]amino]oxymethyl]-2-pyridyl]carba-mate], the figures for the Observed efficacy (in the assay on Pyricularia oryzae (1 ppm); in assay [1] (1 ppm)) were 9 and 21, respectively.

Consider `CCCOCC(C)Oc1nc(C)c(N=CN(C)CC)cc1Br` (centres unmarked) [K.1.54, N′-[5-bromo-2-methyl-6-(1-methyl-2-propoxy-ethoxy)-3-pyridyl]-N-ethyl-N-methyl-formamidine], for which the inhibition of growth at 1 ppm is 19% in the assay on Pyricularia oryzae (setting [2]) and 3% in the assay on Septoria tritici (setting [8]).

Consider `CO/N=C(/C(=O)OC)c1ccccc1COc1ccccc1C` [Kresoxim-methyl, kresoxim-methyl], for which the inhibition of growth at […] in assay [1] (setting [5]) came out at 45%.

For `CO/N=C(/C(=O)OC)c1ccccc1COc1ccccc1C` [Kresoximmethyl], in the assay on Pyricularia oryzae (setting [2]), the inhibition of growth at 1 ppm worked out at 58%. In addition, the inhibition of growth at […] with Septoria tritici (setting [6]) worked out at 41%.

`CC1(C)CCC(Cc2ccc(Cl)cc2)C1(O)Cn1cncn1` (centres unmarked) [Metconazol, metconazole]: in assay [1] (setting [4]), the inhibition of growth at […] was found to be 11%.

With `COc1cc(C)c(C(=O)c2c(OC)ccc(Br)c2C)c(OC)c1OC` [Metrafenone, metrafenone], the inhibition of growth at 4 ppm in assay [1] (setting [10]) stood at 14%.

As to `CC(C)CC(C)c1sccc1NC(=O)c1cn(C)nc1C(F)(F)F` (centres unmarked) [Penthiopyrad, penthiopyrad], the values for the inhibition of growth at […] (in the assay with Septoria tritici (setting [6]); with Septoria tritici (setting [7]); in assay [1] (setting [5])) were 5%, 28% and 8%, respectively.

Consider `CCCC1COC(Cn2cncn2)(c2ccc(Cl)cc2Cl)O1` (centres unmarked) [Propiconazol, propiconazole], for which the inhibition of growth at […] in the assay on Septoria tritici (setting [6]) amounted to 17%; in assay [1] (setting [12]) it was 3%; in assay [1] (setting [4]) it was 3%; in assay [1] (setting [5]), 15%.

For the compound `OC(Cc1ccccc1Cl)(Cn1nc[nH]c1=S)C1(Cl)CC1` (centres unmarked) [Prothioconazol, prothioconazole], in assay [1] (setting [5]), the inhibition of growth at […] turned out to be 14%.

In turn, `COc1cc(C)c(C(=O)c2c(OC)ncc(Cl)c2C)c(OC)c1OC` [Pyriofenon, pyriofenone] came in with an Observed efficacy with Botrytis cinerea of 2%.

Turning to `CC(C)(C)C(O)(CCc1ccc(Cl)cc1)Cn1cncn1` (centres unmarked) [Tebuconazol, tebuconazole], the inhibition of growth at 0.0663 ppm with Pyricularia oryzae (setting [2]) was determined as 4%. The inhibition of growth at […] in assay [1] (setting [4]) worked out at 2%; in assay [1] (setting [5]), 14%.

For the compound `CON=C(C(=O)OC)c1ccccc1CON=C(C)c1cccc(C(F)(F)F)c1` [Trifloxystrobin, trifloxystrobin], the values for the inhibition of growth at […] (in the assay on Septoria tritici (setting [3]); in the assay with Botrytis cinerea (0.063 ppm); in assay [1] (setting [12])) were 43%, 3% and 9%, respectively.

`CC1(C)CCC(=Cc2ccc(Cl)cc2)C1(O)Cn1cncn1` (centres unmarked) [Triticonazol, triticonazole]: in assay [1] (setting [9]), the inhibition of growth at 1 ppm turned out to be 11%.

Turning to mancozeb, the Observed efficacy with Septoria tritici (1 ppm) amounted to 9; in assay [1] (1 ppm), 24.

Source of the values: patent US20210084902A1, “FUNGICIDAL MIXTURE COMPRISING SUBSTITUTED 3-PHENYL-5-(TRIFLUOROMETHYL)-1,2,4-OXADIAZOLES” (BASF SE, priority 2017, published 2021).
